Measured values as given in patent US12595253B2, “Benzamides of pyrazolylamino-pyrimidinyl derivatives, and compositions and methods thereof” (LYNK PHARMACEUTICALS CO. LTD., priority 2019, dated 2026).
pIC50: −log10 of the molar value. Where a name gives a salt, the structure may show the parent alone.

How the values were obtained:
JAK1 = target: T1, JAK1 (Homo sapiens, UniProt P23458); assay: JAK1 microfluidic kinase assay (Caliper EZ Reader II, FAM labeled peptide substrate); format: biochemical; settings: IC50 JAK1 (5 nM) (1 m MATP), JAK1 5 nM, 1 mM ATP
T1 construct: purchased Carna Biosciences
T1 sequence (P23458 whole entry): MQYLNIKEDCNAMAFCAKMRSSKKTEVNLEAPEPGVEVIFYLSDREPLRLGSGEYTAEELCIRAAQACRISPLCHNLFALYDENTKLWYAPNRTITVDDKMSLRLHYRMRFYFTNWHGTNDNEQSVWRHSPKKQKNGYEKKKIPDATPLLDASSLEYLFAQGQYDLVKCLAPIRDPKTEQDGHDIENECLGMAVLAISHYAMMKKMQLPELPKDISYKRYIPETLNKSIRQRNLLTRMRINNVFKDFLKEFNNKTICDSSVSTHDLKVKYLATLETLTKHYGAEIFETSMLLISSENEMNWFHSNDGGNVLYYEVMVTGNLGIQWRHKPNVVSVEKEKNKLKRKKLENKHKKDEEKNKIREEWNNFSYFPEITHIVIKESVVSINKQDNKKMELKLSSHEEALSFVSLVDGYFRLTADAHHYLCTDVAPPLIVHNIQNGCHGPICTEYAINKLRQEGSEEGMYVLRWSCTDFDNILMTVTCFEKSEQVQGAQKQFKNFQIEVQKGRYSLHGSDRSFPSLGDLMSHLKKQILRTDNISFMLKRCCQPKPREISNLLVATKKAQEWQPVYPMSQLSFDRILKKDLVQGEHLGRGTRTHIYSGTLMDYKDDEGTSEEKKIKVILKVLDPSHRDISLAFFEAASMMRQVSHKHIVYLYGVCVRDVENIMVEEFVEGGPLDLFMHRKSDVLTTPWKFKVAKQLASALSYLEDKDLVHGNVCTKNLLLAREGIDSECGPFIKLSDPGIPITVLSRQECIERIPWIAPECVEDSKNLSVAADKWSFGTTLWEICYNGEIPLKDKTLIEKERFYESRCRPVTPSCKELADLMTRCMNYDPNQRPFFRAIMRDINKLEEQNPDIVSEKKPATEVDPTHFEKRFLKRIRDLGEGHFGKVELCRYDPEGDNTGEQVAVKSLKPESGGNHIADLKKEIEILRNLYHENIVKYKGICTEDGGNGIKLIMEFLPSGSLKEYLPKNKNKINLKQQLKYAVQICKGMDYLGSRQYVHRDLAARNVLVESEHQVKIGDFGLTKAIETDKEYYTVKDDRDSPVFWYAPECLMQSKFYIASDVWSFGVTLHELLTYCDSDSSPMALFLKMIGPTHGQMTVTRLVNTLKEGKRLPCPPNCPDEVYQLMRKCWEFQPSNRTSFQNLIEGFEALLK
Procedure: (§1) Compounds were tested against JAK1, JAK2, JAK2V617F and TYK2. Assay Formats: JAK activity was determined in the reaction buffer 50 mM HEPES, 0.01% Brij35, 10 mM MgCl2, 2 mM DTT by a microfluidic assay. The phosphorylation of a FAM labeled peptide substrate was monitored in the Caliper EZ Reader II (Perkin Elmer). The assay condition for each batch of enzyme (Carna Biosciences) was optimized to obtain 10% conversion rate of peptide substrate. The test compounds were dissolved in DMSO to a stock concentration of 10 mM. 3-fold serially diluted compounds with top concentration of 5 μM were pre-incubated with JAK1, JAK2, JAK2V617F or TYK2 at indicated concentrations for 10 min at ambient temperature. The final DMSO concentration of assay mixture was 1%. […] The reaction was stopped by adding 50 mM EDTA. […] The percent inhibition was calculated by the following formula. % Inhibition=(Conversionmax−Conversionsample)/(Conversionmax−Conversionmin)*100 • Conversionmax means the conversion rate in the positive well without addition of compound • Conversionmin means the conversion rate in the well without addition of enzyme • Conversionsample means the conversion rate of test compounds The dose-response (percent inhibition) curve was plotted and IC50 values were determined by GraphPad software.

JAK2 = target: T2, JAK2 (Homo sapiens, UniProt O60674); assay: JAK2 microfluidic kinase assay (Caliper EZ Reader II, FAM labeled peptide substrate); format: biochemical
T2 construct: purchased Carna Biosciences
T2 sequence (O60674 whole entry): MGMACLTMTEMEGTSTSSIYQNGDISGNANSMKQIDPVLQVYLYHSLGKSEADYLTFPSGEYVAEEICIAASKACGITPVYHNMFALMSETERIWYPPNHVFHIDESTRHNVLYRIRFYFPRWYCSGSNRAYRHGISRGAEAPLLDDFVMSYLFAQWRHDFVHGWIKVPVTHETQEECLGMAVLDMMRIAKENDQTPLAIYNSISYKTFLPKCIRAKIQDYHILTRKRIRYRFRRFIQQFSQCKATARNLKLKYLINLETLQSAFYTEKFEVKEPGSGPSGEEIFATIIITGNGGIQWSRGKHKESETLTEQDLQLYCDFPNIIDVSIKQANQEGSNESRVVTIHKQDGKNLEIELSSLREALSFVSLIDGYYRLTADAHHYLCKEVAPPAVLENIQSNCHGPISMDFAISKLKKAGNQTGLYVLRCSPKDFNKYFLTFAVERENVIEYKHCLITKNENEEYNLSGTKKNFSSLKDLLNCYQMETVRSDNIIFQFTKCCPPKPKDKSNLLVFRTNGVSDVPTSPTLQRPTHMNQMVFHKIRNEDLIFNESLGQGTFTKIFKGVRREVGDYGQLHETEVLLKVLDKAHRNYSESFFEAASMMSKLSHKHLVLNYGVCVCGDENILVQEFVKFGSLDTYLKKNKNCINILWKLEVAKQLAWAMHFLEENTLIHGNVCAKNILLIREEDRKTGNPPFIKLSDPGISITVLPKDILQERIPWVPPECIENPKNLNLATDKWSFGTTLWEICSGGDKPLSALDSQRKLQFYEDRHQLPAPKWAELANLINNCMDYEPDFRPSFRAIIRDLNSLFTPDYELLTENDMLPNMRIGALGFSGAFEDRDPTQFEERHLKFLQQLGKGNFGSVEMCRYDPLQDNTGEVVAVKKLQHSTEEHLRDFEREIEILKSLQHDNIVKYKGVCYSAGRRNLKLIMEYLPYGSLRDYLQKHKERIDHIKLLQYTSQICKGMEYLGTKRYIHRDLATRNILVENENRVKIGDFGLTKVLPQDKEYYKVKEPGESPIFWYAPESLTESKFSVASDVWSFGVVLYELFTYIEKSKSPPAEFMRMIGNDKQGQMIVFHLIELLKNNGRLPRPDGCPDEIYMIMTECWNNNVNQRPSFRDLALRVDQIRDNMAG
Procedure: as §1

[1] = IC50 JAK2 ([…]) (1 mM ATP), 1 mM ATP
[2] = IC50 JAK2 ([…]) (Km ATP), Km ATP

| SMILES | pIC50 (JAK1) | pIC50 (JAK2; [1]) | pIC50 (JAK2; [2]) |
| --- | --- | --- | --- |
| CC1(C)CC(n2cc(Nc3ncc(Cl)c(-c4ccc(C(=O)NCC#N)cc4)n3)cn2)CC(C)(C)O1 [Example 181, 4-(5-Chloro-2-((1-(2,2,6,6-tetramethyltetrahydro-2H-pyran-4-yl)-1H-pyrazol-4-yl)amino)pyrimidin-4-yl)-N-(cyanomethyl)benzamide] | 7.94 | > 9.60 |  |
| Cc1cnc(Nc2cnn(C)c2)nc1-c1ccc(C(=O)NCC2(O)CC2)cc1 [Example 32, N-((1-Hydroxycyclopropyl)methyl)-4-(5-methyl-2-((1-methyl-1H-pyrazol-4-yl)amino)pyrimidin-4-yl)benzamide] | 7.28 | 6.78 | 8.29 |
| Cc1cnc(Nc2cnn(C3CC(F)(F)C3)c2)nc1-c1ccc(C(=O)NCC#N)cc1 [Example 104, N-(cyanomethyl)-4-(2-((1-(3,3-difluorocyclobutyl)-1H-pyrazol-4-yl)amino)-5-methylpyrimidin-4-yl)benzamide] | 6.55 | 5.94 |  |
| Cc1cnc(Nc2cnn(C)c2)nc1-c1ccc(C(=O)NCCC#N)cc1 [Example 2, N-(2-Cyanoethyl)-4-(5-methyl-2-((1-methyl-1H-pyrazol-4-yl)amino)pyrimidin-4-yl)benzamide] | 7.47 | 7.24 | 8.75 |
| Cc1cnc(Nc2cnn(C3CCN(C(=O)C4CC4)CC3)c2)nc1-c1ccc(C(=O)N[C@@H](C)C#N)nc1 [Example 151, (S)—N-(1-cyanoethyl)-5-(2-((1-(1-(cyclopropanecarbonyl)piperidin-4-yl)-1H-pyrazol-4-yl)amino)-5-methylpyrimidin-4-yl)picolinamide] | 7.14 | 7.49 |  |
| Cc1cnc(Nc2cnn(C3CCNCC3)c2)nc1-c1ccc(C(=O)NCC(N)=O)cc1 [Example 82, N-(2-amino-2-oxoethyl)-4-(5-methyl-2-((1-(piperidin-4-yl)-1H-pyrazol-4-yl)amino)pyrimidin-4-yl)benzamide hydrochloride] | 6.52 | 6.69 | 8.12 |
| COC[C@@H](C#N)NC(=O)c1ccc(-c2nc(Nc3cnn(C4CC4)c3)ncc2C)cc1 [Example 187, (R)—N-(1-Cyano-2-methoxyethyl)-4-(2-((1-cyclopropyl-1H-pyrazol-4-yl)amino)-5-methylpyrimidin-4-yl)benzamide] | 8.24 | 7.86 |  |
| [2H]c1c([2H])c(-c2nc(Nc3cnn(C4CC4)c3)ncc2Cl)c([2H])c([2H])c1C(=O)N[C@@H](C)C#N [Example 162, (S)-4-(5-chloro-2-((1-cyclopropyl-1H-pyrazol-4-yl)amino)pyrimidin-4-yl)-N-(1-cyanoethyl)benzamide-2,3,5,6-d4] | 8.34 | 8.95 |  |
| N#CCNC(=O)c1ccc(-c2ccnc(Nc3cnn(C4CC4)c3)n2)cc1F [Example 139, N-(Cyanomethyl)-4-(2-((1-cyclopropyl-1H-pyrazol-4-yl)amino)pyrimidin-4-yl)-2-fluorobenzamide] | 6.54 | 6.66 | 8.28 |
| CC[C@@H](C#N)NC(=O)c1ccc(-c2nc(Nc3cnn(C4CCC(O)CC4)c3)ncc2C)cc1 (stereo partly drawn) [Example 205, (S)—N-(1-cyanopropyl)-4-(2-((1-(4-hydroxycyclohexyl)-1H-pyrazol-4-yl)amino)-5-methylpyrimidin-4-yl)benzamide] | 8.04 | 9.28 |  |
| N#CCNC(=O)c1ccc(-c2nc(Nc3cnn(CC(N)=O)c3)ncc2Cl)cc1 [Example 42, 4-(2-((1-(2-amino-2-oxoethyl)-1H-pyrazol-4-yl)amino)-5-chloropyrimidin-4-yl)-N-(cyanomethyl)benzamide] | 7.04 |  |  |
| Cn1cc(Nc2ncc(Cl)c(-c3ccc(C(=O)NCC4(C#N)CC4)cc3)n2)cn1 [Example 124] | 7.66 | 7.33 |  |
| CC[C@@H](C#N)NC(=O)c1ccc(-c2nc(Nc3cnn(C)c3)ncc2C)cc1 [Example 219, (S)—N-(1-cyanopropyl)-4-(5-methyl-2-((1-methyl-1H-pyrazol-4-yl)amino)pyrimidin-4-yl)benzamide] | 8.26 | 7.37 |  |
| Cc1cnc(Nc2cnn(C3CC(C)(C)OC(C)(C)C3)c2)nc1-c1ccc(C(=O)N[C@@H](C)C#N)c(F)c1 [Example 224, (S)—N-(1-Cyanoethyl)-2-fluoro-4-(5-methyl-2-((1-(2,2,6,6-tetramethyltetrahydro-2H-pyran-4-yl)-1H-pyrazol-4-yl)amino)pyrimidin-4-yl)benzamide] | 7.01 | 9.31 |  |
| C[C@@H](C#N)NC(=O)c1ccc(-c2nc(Nc3cnn(C4CCN(C(=O)C(C)(C)C)CC4)c3)ncc2F)cc1 [Example 57, (S)—N-(1-cyanoethyl)-4-(5-fluoro-2-((1-(1-pivaloylpiperidin-4-yl)-1H-pyrazol-4-yl)amino)pyrimidin-4-yl)benzamide] | 6.88 | 7.41 |  |
| Cc1cnc(Nc2cnn(C3CCN(C(=O)C(C)(C)O)CC3)c2)nc1-c1ccc(C(=O)NC(C)C#N)cc1 (stereo in doubt) [Example 52, (S)—N-(1-cyanoethyl)-4-(2-((1-(1-(2-hydroxy-2-methylpropanoyl)piperidin-4-yl)-1H-pyrazol-4-yl)amino)-5-methylpyrimidin-4-yl)benzamide] | 7.97 | 9.07 |  |
| Cc1cnc(Nc2cnn(C3CCN(C)CC3)c2)nc1-c1ccc(C(=O)N2CC(C#N)C2)cc1 [Example 92, 1-(4-(5-Methyl-2-((1-(1-methylpiperidin-4-yl)-1H-pyrazol-4-yl)amino)pyrimidin-4-yl)benzoyl)azetidine-3-carbonitrile] | 6.60 | 6.94 | 8.44 |
| CC[C@@H](C#N)NC(=O)c1ccc(-c2nc(Nc3cnn(C)c3)ncc2Cl)cc1 [Example 220, (S)-4-(5-chloro-2-((1-methyl-1H-pyrazol-4-yl)amino)pyrimidin-4-yl)-N-(1-cyanopropyl)benzamide] | 7.79 | 7.16 |  |
| N#CCNC(=O)c1ccc(-c2nc(Nc3cnn(C4CCN(C(=O)C5CC5)CC4)c3)ncc2C(F)(F)F)cc1 [Example 161, N-(cyanomethyl)-4-(2-((1-(1-(cyclopropanecarbonyl)piperidin-4-yl)-1H-pyrazol-4-yl)amino)-5-(trifluoromethyl)pyrimidin-4-yl)benzamide] | < 5.30 | < 5.30 |  |
| COc1cc(-c2nc(Nc3cnn(C)c3)ncc2C)ccc1C(=O)NCC#N [Example 33, N-(cyanomethyl)-2-methoxy-4-(5-methyl-2-((1-methyl-1H-pyrazol-4-yl)amino)pyrimidin-4-yl)benzamide] |  |  | 7.39 |
| C[C@@H](C#N)NC(=O)c1ccc(-c2nc(Nc3cnn(C4CC4)c3)ncc2F)cc1F [Example 117, (S)—N-(1-cyanoethyl)-4-(2-((1-cyclopropyl-1H-pyrazol-4-yl)amino)-5-fluoropyrimidin-4-yl)-2-fluorobenzamide] |  |  | 7.72 |
| Cn1cc(Nc2ncc(F)c(-c3ccc(C(=O)NCC#N)c(F)c3)n2)cn1 [Example 36, N-(Cyanomethyl)-2-fluoro-4-(5-fluoro-2-((1-methyl-1H-pyrazol-4-yl)amino)pyrimidin-4-yl)benzamide] |  |  | 7.66 |
